For 36 compounds, EC50 results are on record in BindingDB's records for patent US11116760 (Gilead Sciences, 2021).

The experiment deals with T1, Integrin alpha-4/beta-7 (Homo sapiens, UniProt P13612+P26010).
T1 sequence (P13612 whole entry): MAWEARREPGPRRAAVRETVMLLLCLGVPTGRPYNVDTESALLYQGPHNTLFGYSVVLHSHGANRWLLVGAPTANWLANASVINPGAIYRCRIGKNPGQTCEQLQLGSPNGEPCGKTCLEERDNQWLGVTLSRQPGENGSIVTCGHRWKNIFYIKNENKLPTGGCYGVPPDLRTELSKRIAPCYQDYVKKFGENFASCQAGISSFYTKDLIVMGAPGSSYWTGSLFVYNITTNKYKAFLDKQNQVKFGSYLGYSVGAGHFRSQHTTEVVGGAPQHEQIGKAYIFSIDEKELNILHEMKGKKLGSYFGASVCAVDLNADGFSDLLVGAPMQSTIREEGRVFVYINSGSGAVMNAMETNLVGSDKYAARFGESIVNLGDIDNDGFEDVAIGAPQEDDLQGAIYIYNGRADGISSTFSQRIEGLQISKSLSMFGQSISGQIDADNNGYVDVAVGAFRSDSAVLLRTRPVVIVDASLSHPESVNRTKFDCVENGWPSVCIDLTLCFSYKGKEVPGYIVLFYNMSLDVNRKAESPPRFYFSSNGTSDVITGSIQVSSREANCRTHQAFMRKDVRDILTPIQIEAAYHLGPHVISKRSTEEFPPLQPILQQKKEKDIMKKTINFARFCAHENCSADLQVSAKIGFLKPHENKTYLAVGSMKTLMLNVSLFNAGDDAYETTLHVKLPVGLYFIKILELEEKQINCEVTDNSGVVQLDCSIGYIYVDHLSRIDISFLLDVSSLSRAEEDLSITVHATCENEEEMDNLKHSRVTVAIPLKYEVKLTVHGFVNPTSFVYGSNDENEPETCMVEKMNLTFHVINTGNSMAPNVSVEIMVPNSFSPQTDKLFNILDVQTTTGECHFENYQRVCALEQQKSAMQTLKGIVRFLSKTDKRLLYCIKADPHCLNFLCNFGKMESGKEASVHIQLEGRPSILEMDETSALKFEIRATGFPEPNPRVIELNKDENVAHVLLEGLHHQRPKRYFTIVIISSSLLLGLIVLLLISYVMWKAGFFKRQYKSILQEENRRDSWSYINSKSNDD
T1 sequence (P26010 whole entry): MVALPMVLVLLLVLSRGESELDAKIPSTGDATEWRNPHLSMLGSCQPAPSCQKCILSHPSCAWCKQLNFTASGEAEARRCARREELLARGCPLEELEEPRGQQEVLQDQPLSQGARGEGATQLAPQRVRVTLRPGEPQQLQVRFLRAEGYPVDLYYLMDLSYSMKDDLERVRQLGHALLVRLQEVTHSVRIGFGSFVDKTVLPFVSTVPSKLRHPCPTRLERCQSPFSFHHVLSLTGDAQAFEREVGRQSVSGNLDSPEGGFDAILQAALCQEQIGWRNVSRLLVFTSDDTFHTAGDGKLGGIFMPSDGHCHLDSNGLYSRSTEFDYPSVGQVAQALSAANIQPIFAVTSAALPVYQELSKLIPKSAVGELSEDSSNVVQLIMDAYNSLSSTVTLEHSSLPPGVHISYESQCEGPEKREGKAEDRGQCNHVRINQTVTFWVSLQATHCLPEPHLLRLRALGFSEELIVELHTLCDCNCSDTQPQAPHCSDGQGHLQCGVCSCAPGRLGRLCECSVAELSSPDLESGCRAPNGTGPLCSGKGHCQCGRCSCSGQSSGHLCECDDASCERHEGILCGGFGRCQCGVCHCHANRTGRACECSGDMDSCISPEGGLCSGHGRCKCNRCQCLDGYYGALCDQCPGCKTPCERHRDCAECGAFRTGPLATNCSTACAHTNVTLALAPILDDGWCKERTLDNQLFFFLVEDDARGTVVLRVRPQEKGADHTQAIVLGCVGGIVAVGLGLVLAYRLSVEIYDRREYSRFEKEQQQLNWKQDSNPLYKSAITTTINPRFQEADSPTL
The experiment can be described thus: alpha-4 beta-7 Integrin Cell Capture Assay. The procedure:
The potency of inhibitors in preventing α4β7 integrin interaction with MadCAM-1 was measured by monitoring the capture of α4β7 integrin expressing cells on a recombinant MadCAM-1 extracellular domain-coated plate. 384-Well plates (Corning 3702) were coated with MadCAM-1 extracellular domain by dispensing 20 μL of MAdCAM-1 at 1.0 μg/mL per well and incubating overnight at 4° C. The plates were then washed with PBS and blocked with 3% BSA for 2 hours before being washed again.
For `O=C(N[C@@H](Cc1ccc(-c2cc(F)c(F)cc2OCC2CC2)c2ncccc12)C(=O)O)c1c(F)cccc1F` [US11116760, Example 10], the EC50 (commonly the concentration giving half of the maximal effect) was 21.2 nM.

In turn, `COc1ccn(C)c(=O)c1-c1ccc(C[C@H](NC(=O)c2c(F)cccc2F)C(=O)O)c2cccnc12` [US11116760, Example 13] came in with an EC50 of 8.5 nM. The result for `O=C(N[C@@H](Cc1ccc(-c2ccc(F)c3cccnc23)c2ncccc12)C(=O)O)c1c(F)cccc1F` [US11116760, Example 15] reads 9.3 nM; that for `N#Cc1ccc(-c2ccc(C[C@H](NC(=O)c3c(Cl)ccc(F)c3F)C(=O)O)c3cccnc23)c(Cl)c1` [US11116760, Example 17], 36.7 nM. Under `COc1cc(F)c(C(=O)N[C@@H](Cc2ccc(-c3ccc(C#N)cc3Cl)c3ncccc23)C(=O)O)c(F)c1` [US11116760, Example 21] stands 96.6 nM; under `CC(O)c1cc(F)c(C(=O)N[C@@H](Cc2ccc(-c3ccc(C#N)cc3Cl)c3ncccc23)C(=O)O)c(F)c1` (stereo partly specified) [US11116760, Example 33], 60.5 nM. The result for `CCOCc1cc(OC)c(-c2ccc(C[C@H](NC(=O)c3c(F)cc(N)cc3F)C(=O)O)c3cccnc23)c(OC)c1` [US11116760, Example 44] reads 10.9 nM. As for `CCOCc1cc(OC)c(-c2ccc(C[C@H](NC(=O)c3c(F)cc(NS(=O)(=O)c4ccc(-c5ccnc(F)c5)cc4)cc3F)C(=O)O)c3cccnc23)c(OC)c1` [US11116760, Example 50], the EC50 is 0.4 nM. Under `COc1c(-c2ccc(C[C@H](NC(=O)c3c(F)cccc3F)C(=O)O)c3cccnc23)c(=O)n(C)c2ccccc12` [US11116760, Example 67] stands 1.6 nM; under `Cc1ccc(C(F)(F)F)c(-c2ccc(C[C@H](NC(=O)c3c(Cl)cccc3Cl)C(=O)O)c3cccnc23)n1` [US11116760, Example 68], 14 nM. The result for `Nc1ccc(C(F)(F)F)c(-c2ccc(C[C@H](NC(=O)c3c(Cl)cccc3Cl)C(=O)O)c3cccnc23)n1` [US11116760, Example 72] reads 5.5 nM. `C[C@H]1CN(c2cc(F)c(C(=O)N[C@@H](Cc3ccc(-c4ccc(C#N)cc4Cl)c4ncccc34)C(=O)O)c(F)c2)CCO1` [US11116760, Example 84] gave an EC50 of 11.7 nM. As to `COc1ccnc(-c2ccc(C[C@H](NC(=O)c3c(F)cc(N4CCOC[C@@H]4C(F)(F)F)cc3F)C(=O)O)c3cccnc23)c1C(F)(F)F` [US11116760, Example 93], a half-maximal effect (EC50) was put at 0.4 nM. `Cc1cnc(-c2ccc(C[C@H](NC(=O)c3c(F)cc(N4CCOC[C@@H]4C(F)(F)F)cc3F)C(=O)O)c3cccnc23)nc1C` [US11116760, Example 97]: the EC50 stood at 3.2 nM. Under `CC[C@@H](Nc1cc(F)c(C(=O)N[C@@H](Cc2ccc(-c3c(C(F)(F)F)c4cc(N(C)C)ccc4n(C)c3=O)c3ncccc23)C(=O)O)c(F)c1)C(F)(F)F` [US11116760, Example 125] stands 1 nM; under `CC[C@@H](Nc1cc(F)c(C(=O)N[C@@H](Cc2cc(F)c(-c3c(OC)cc(C)n(C)c3=O)c3ncccc23)C(=O)O)c(F)c1)C(F)(F)F` [US11116760, Example 138], 0.8 nM; under `CC1(Nc2cc(F)c(C(=O)N[C@@H](Cc3ccc(-c4ccc(C#N)cc4Cl)c4ncccc34)C(=O)O)c(F)c2)COC1` [US11116760, Example 152], 51.7 nM. `Cc1cc(C(F)(F)F)c(-c2ccc(C[C@H](NC(=O)c3c(F)cc(N[C@H](C4CC4)C(F)(F)F)cc3F)C(=O)O)c3cccnc23)c(=O)n1C` [US11116760, Example 155] registered an EC50 of 0.3 nM. The result for `N#Cc1ccc(-c2ccc(C[C@H](NC(=O)c3c(F)cc(NC(=O)c4ccccc4)cc3F)C(=O)O)c3cccnc23)c(Cl)c1` [US11116760, Example 169] reads 88.6 nM. `N#Cc1ccc(-c2ccc(C[C@H](NC(=O)c3c(F)cc(N[C@H]4CCC4(F)F)cc3F)C(=O)O)c3cccnc23)c(Cl)c1` [US11116760, Example 173]: the EC50 came out at 81.5 nM. Under `CC1(C)CN(c2cc(F)c(C(=O)N[C@@H](Cc3ccc(-c4ccc(C#N)cc4Cl)c4ncccc34)C(=O)O)c(F)c2)CCO1` [US11116760, Example 213] stands 28.6 nM; under `N#Cc1ccc(-c2ccc(C[C@H](NC(=O)c3c(F)cc(NC4COC4)cc3F)C(=O)O)c3cccnc23)c(Cl)c1` [US11116760, Example 214], 28.6 nM; under `N#Cc1ccc(-c2ccc(C[C@H](NC(=O)c3c(F)cc(N4CCOC(C(F)(F)F)C4)cc3F)C(=O)O)c3cccnc23)c(Cl)c1` (stereo partly specified) [US11116760, Example 245], 33.6 nM. Compound `N#Cc1ccc(-c2ccc(C[C@H](NC(=O)c3c(F)cc(NC(C4CCOCC4)C(F)(F)F)cc3F)C(=O)O)c3cccnc23)c(Cl)c1` (stereo partly specified) [US11116760, Example 247] yielded an EC50 of 35.2 nM.

`Cc1c(C)c(C)n(C)c(=O)c1-c1ccc(C[C@H](NC(=O)c2c(F)cc(N3CCOC[C@H]3C(F)(F)F)cc2F)C(=O)O)c2cccnc12` [US11116760, Example 251]: the EC50 came out at 3.1 nM.

Compound `Cc1cc(C)nc(-c2ccc(C[C@H](NC(=O)c3c(F)cc(N4CCOC[C@@H]4C(F)(F)F)cc3F)C(=O)O)c3cccnc23)n1` [US11116760, Example 261] came in with an EC50 of 4 nM. The result for `N#Cc1ccc(-c2ccc(C[C@H](NC(=O)c3c(F)cc(NC4CCOCC4)cc3F)C(=O)O)c3cccnc23)c(Cl)c1` [US11116760, Example 262] reads 30.6 nM; that for `N#Cc1ccc(-c2ccc(C[C@H](NC(=O)c3c(F)cc(N4CCO[C@@H](C(F)(F)F)C4)cc3F)C(=O)O)c3cccnc23)c(Cl)c1` [US11116760, Example 265], 68.8 nM; that for `N#Cc1ccc(-c2ccc(C[C@H](NC(=O)c3ccc4[nH]ccc4c3Cl)C(=O)O)c3cccnc23)c(Cl)c1` [US11116760, Example 266], 72.2 nM. The result for `CC(C)[C@H]1COCCN1c1cc(F)c(C(=O)N[C@@H](Cc2ccc(-c3ccc(C#N)cc3Cl)c3ncccc23)C(=O)O)c(F)c1` [US11116760, Example 292] reads 26.9 nM; that for `CC[C@@H](Nc1cc(F)c(C(=O)N[C@@H](Cc2ccc(-c3nccc(C)n3)c3ncccc23)C(=O)O)c(F)c1)C(F)(F)F` [US11116760, Example 294], 7.4 nM. The result for `CC[C@@H](Nc1cc(F)c(C(=O)N[C@@H](Cc2ccc(-c3ncc(C)c(C)n3)c3ncccc23)C(=O)O)c(F)c1)C(F)(F)F` [US11116760, Example 309] reads 11.9 nM; that for `O=C(N[C@@H](Cc1ccc(-c2nccc(C(F)(F)F)c2Cl)c2ncccc12)C(=O)O)c1c(Cl)cccc1Cl` [US11116760, Example 314], 13.4 nM. The compound `C[C@@H]1CN(c2cc(F)c(C(=O)N[C@@H](Cc3ccc(-c4ccc(C#N)cc4Cl)c4ncccc34)C(=O)O)c(F)c2)CCO1` [US11116760, Example 328] returned an EC50 of 19.4 nM.

In the case of `O=C(N[C@@H](Cc1ccc(-c2nccc(C#CC3CC3)c2C(F)(F)F)c2ncccc12)C(=O)O)c1c(Cl)cccc1Cl` [US11116760, Example 330], the half-maximal effective concentration (EC50) is 21 nM. Under `N#Cc1ccc(-c2ccc(C[C@H](NC(=O)c3c(F)cc(N[C@H](C4CCOCC4)C(F)(F)F)cc3F)C(=O)O)c3cccnc23)c(Cl)c1` [US11116760, Example 338] stands 26.5 nM.
